{"source": "paper PMC12807552", "about": "“The Synthesis of BODIPY-TKI Conjugates and Investigation of Their Ability to Target the Epidermal Growth Factor Receptor” (Targets (Basel), 2023)", "molecular_target": "EGFR kinase domain (epidermal growth factor receptor) (Homo sapiens, UniProt P00533)", "sequence (P00533 695-1210)": "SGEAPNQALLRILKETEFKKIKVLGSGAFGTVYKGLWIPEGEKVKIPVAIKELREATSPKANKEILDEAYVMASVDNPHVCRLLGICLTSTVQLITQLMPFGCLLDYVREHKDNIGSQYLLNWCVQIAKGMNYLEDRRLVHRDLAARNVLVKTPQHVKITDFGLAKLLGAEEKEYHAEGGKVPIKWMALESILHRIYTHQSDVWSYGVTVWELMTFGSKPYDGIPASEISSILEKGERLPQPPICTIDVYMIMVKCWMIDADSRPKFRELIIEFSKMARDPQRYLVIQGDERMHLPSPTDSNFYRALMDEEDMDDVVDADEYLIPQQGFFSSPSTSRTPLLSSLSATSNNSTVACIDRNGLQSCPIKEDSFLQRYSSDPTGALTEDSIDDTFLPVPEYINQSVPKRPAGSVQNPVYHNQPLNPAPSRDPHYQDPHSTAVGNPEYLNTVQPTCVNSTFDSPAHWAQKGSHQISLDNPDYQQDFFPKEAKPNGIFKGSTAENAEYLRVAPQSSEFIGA", "assay": "biochemical", "note": "pKd: −log10 of the molar value.", "data": [{"smiles": "COCCOc1cc2ncnc(Nc3cccc(-c4cn(CCOCCOCCOCCNC(=S)Nc5ccc(-c6c7ccccc7c7n6[B-](F)(F)[N+]6=C(c8ccc(N=C=S)cc8)c8ccccc8C6=C7c6cc(OC)cc(OC)c6)cc5)nn4)c3)c2cc1OCCOC", "note": "[compound 5, BODIPY-monoTKI]", "values": [{"measurement": "pKd", "value": 5.09}]}]}
